Legend:
[1] = system: patients with type 2 diabetes; test: Acute NEFA lowering with acipimox: 3 h OGTT and isoglycaemic IV glucose; format: in vivo, human
Protocol: Both tests were repeated after ACP ingestion (200 mg 2 h before and 1 h after starting glucose). C-peptide deconvolution was used to calculate IS rates; mathematical model to quantitate ß-cell function and IE. Main parameters: insulin secretion rate (ISR); glucose sensitivity (ßGS), i.e., the slope of the IS/glucose dose–response curve; glucose-induced potentiation (PGLU), a time-dependent modulation of the dose–response; incretin-induced potentiation (PINCR) calculated as the fold IS increment during OGTT compared to IV glucose.

obese patients = system: obese patients
From the text: Alpha-linolenic acid supplementation effects on endoplasmic reticulum stress in visceral adipose tissue from morbid obese patients. 2017. Tese (Doutorado)—Faculdade de Medicina de Ribeirão Preto, Universidade de São Paulo, Ribeirão Preto, 2017. Currently, obesity is considered a worldwide epidemic. It is associated with chronic inflammation and stress activation of the endoplasmic reticulum (ERE), related to the pathogenesis of various diseases such as type 2 diabetes mellitus, cardiovascular diseases, cancer, hypertension, among others. In this context, studies are needed to find alternatives that improve the inflammatory process. […] The objective of our study was to evaluate the effects of alpha-linolenic acid (ALA) supplementation on the metabolism and stress of the endoplasmic reticulum in obese patients. A prospective, randomized, placebo-controlled, double-blind study was conducted. In total, 52 patients were randomized to supplementation with 3 g/day of ALA or placebo, 27 individuals from the omega-3/ALA group and 25 from the control group. Lipid, glycidic and inflammatory profile were evaluated before and after supplementation. Visceral adipose tissue (TAV) was collected during bariatric surgery after supplementation. The fatty acid profile incorporated in the TAV was evaluated by gas chromatography. Genes were evaluated by real-time PCR.

male Wistar rats = format: in vivo, rat
From the text: Background: Glucocorticoids (GCs) are a group of drugs with immunosuppressive and antiinflammatory action, its mechanism of action is related to the suppressing the release of proinflammatory cytokines. In addition, GCs may interfere with carbohydrate metabolism, by antagonizing various peripheral actions of insulin, and from this action, trigger changes in the biochemical profile, mainly regarding the lipid representation. The present study aimed to evaluate the dose–response influence of prednisone in the biochemical profile of rats. […] The treatment was daily with a duration of 21 days, with fasting glycemic measures being evaluated in the first (zero) and last day (21). Then the rats were anesthetized and killed by decapitation, in order to collect the whole blood for serum biochemical analysis by spectrophotometry. All data were statistically evaluated with significance of 5%.

[2] = system: NGT subjects and T2D patients; test: Hyperglycaemic clamp with somatostatin, without and with insulin infusion: renal glucose excretion; format: in vivo, human
Protocol: Then, a constant insulin infusion (1 mU min^−1 kg^−1) was started and maintained for additional 3 h (INS period) while clamping glycaemia at CT levels with the use of an ad hoc algorithm. Urines were collected separately for the two study periods for the measurement of glucose and creatinine.

[3] = system: people with T2D and CKD stages 3-4; test: AWARD-7 phase 3 study, 26 weeks, both arms combined with insulin lispro; format: in vivo, human
[4] = system: subjects with type 1 diabetes; test: onset 1, 26-week phase 3 trial, post hoc analysis by dose adjustment method; format: in vivo, human; details: before treatment
[5] = arms DU 1.5 mg and insulin glargine
[6] = subjects continuing carbohydrate counting (CC)
[7] = subjects using a simple bolus algorithm (BA)

Cc1cnc(C(=O)O)c[n+]1[O-] [ACP, acipimox]
decrease of NEFA OGTT-area-under-curve (AUC) ([1]; ACP 200 mg 2 h before and 1 h after starting glucose, n = 13, mean ± SD): 55 ± 14%
glucose sensitivity (ßGS) ([1]; after ACP, control 26 ± 9, p = ns): 32 ± 11 pmol min^−1 m^−2 mM^−1
insulin secretion rate (ISR), isoglycaemic IV glucose ([1]; after ACP, control 58 ± 19): 53 ± 15 nmol m^−2
insulin secretion rate (ISR), OGTT ([1]; after ACP, control 70 ± 23): 64 ± 20 nmol m^−2
oral glucose sensitivity index, OGIS ([1]; after ACP, control 291 ± 60): 326 ± 44 ml min^−1 m^−2
incretin-induced potentiation (PINCR) ([1]; in vivo): 1.17 ± 0.14 fold

CC/C=C\C/C=C\C/C=C\CCCCCCCC(=O)O [ALA, alpha-linolenic acid]
serum levels of IL-6, TNF-α and CRP (obese patients; after supplementation): no change
serum Leptin levels (obese patients; after supplementation, P = 0.0154): decrease
serum IL-4 (obese patients; after supplementation, p = 0.0211): increase
serum IP-10 (obese patients; after supplementation, p = 0.0410): decrease
incorporation of ALA, EPA and DHA into visceral adipose tissue (TAV) (obese patients; gas chromatography): Significant incorporation
gene expression of XBP1, sXBP1, EIF2-α, GADD34 and CCT4 chaperone in TAV (obese patients; real-time PCR): increase
gene expression of leptin and ATF-6 in TAV (obese patients; real-time PCR): decrease

C[C@]12C=CC(=O)C=C1CC[C@@H]1[C@@H]2C(=O)C[C@@]2(C)[C@H]1CC[C@]2(O)C(=O)CO [PRED, prednisone]
alanine aminotransferase (ALT) (male Wistar rats; 1.25 mg/kg, control 68.6 ± 24.8): 79.0 ± 25.1 U/L
triglycerides (male Wistar rats; 5.0 mg/kg, 21 days, CONT 144.1 ± 39.6): 76.0 ± 36.2 mg/dL
VLDL (male Wistar rats; 5.0 mg/kg, CONT 22.8 ± 7.9): 15.2 ± 7.2 mg/dL
HDL (male Wistar rats; 5.0 mg/kg, CONT 53.0 ± 7.7): 23.8 ± 4.2 mg/dL

INS: constant insulin infusion (1 mU min^−1 kg^−1)
exogenous glucose infusion rate (GIR) ([2]; INS period (insulin 1 mU min^−1 kg^−1, 3 h), NGT, CT period 36 ± 16): 157 ± 46 µmol kg MM^−1 min^−1
fractional glucose excretion (FEG) ([2]; INS period, NGT, CT period 20 ± 5): 24 ± 3%
urinary glucose excretion (UGE), median [IQR] ([2]; INS period, NGT, CT period 690 [180]): 770 [320] µmol min^−1
fractional glucose excretion (FEG) ([2]; INS period, T2D, CT period 17 ± 6): 17 ± 7%
exogenous glucose infusion rate (GIR) ([2]; INS period, T2D, CT period 26 ± 12): 71 ± 47 µmol kg MM^−1 min^−1
urinary glucose excretion (UGE), median [IQR] ([2]; INS period, T2D, CT period 490[280]): 530[310] µmol min^−1

dulaglutide
Nausea ([3]; arm DU 0.75 mg): 11.1%
diarrhea ([3]; arm DU 0.75 mg): 13.7%
vomiting ([3]; arm DU 0.75 mg): 5.8%
hypoglycemia rate (≤ 70 mg/dL) ([3]; arm DU 0.75 mg once weekly): 7.8 events/participant/year
Nausea [3, 5]: 19.8%
diarrhea [3, 5]: 15.6%
vomiting [3, 5]: 12.0%
hypoglycemia rate (≤ 70 mg/dL) ([3]; arms DU 1.5 mg once weekly and titrated daily insulin glargine): 5.5 events/participant/year

fast-acting insulin aspart [faster aspart]
HbA1c at baseline [4, 6]: 7.6%
HbA1c at baseline [4, 7]: 7.5%

insulin aspart [IAsp]
HbA1c at baseline [4, 6]: 7.6%
HbA1c at baseline [4, 7]: 7.6%

— publication PMC5907308, “21st Brazilian Diabetes Society Congress” (Diabetology & Metabolic Syndrome, 2018)
